Calls of active or inactive are those of the source. No cut-off for these calls is given here.
Legend:
L02 [1] = assay: Hepatoprotective activity against concanavalin A induced liver injury in human HL7702 cells assessed as cell survival rate at 5 uM preincubated for 12 hrs followed by concanavalin A stimulation for 12 hrs by MTT assay (reference value: 51.37%); assay type: functional; conditions: time 24 hrs, read-out: Survival
L02 [2] = assay: Hepatoprotective activity against concanavalin A induced human HL7702 cell apoptosis assessed as decrease in Bax expression level at 5 uM preincubated for 12 hrs followed by concanavalin A stimulation for 12 hrs by Western blot analysis; assay type: functional, cell-based; conditions: time 24.0 hrs
L02 [3] = assay: Hepatoprotective activity against concanavalin A induced human HL7702 cell apoptosis assessed as nuclear morphological changes at 5 uM preincubated for 12 hrs followed by concanavalin A stimulation for 12 hrs by Hoechst 33342 staining based fluorescence microscopy; assay type: functional; conditions: time 24.0 hrs
L02 [4] = assay: Cytotoxicity against human HL7702 cells ssessed as cell survival rate at 5 uM for 12 hrs by MTT assay; assay type: toxicity, cell-based; conditions: l02, 12 h
L02 [5] = assay: Hepatoprotective activity against concanavalin A induced human HL7702 cell apoptosis assessed as increase in Bcl-2 expression level at 5 uM preincubated for 12 hrs followed by concanavalin A stimulation for 12 hrs by Western blot analysis; assay type: functional, cell-based; conditions: time 24.0 hrs
L02 [6] = assay: Hepatoprotective activity against concanavalin A induced human HL7702 cell apoptosis assessed as decrease in cleaved caspase-3 level at 5 uM preincubated for 12 hrs followed by concanavalin A stimulation for 12 hrs by Western blot analysis; assay type: functional, cell-based; conditions: time 24.0 hrs

| SMILES | viability at 5 µM (L02 [1]) [%] | further results |
| --- | --- | --- |
| COc1c(Cl)c2c(c(OC)c1OC)-c1c(c(Cl)c(OC)c(OC)c1OC(=O)c1cccnc1)CC(C)C(C)C2 (configuration not stated) | 79.4 | – |
| COc1cc2c(c(OC)c1OC)-c1c(c([N+](=O)[O-])c(OC)c(OC)c1OC(=O)c1cccnc1)CC(C)C(C)C2 (configuration not stated) | 49.9 | – |
| COc1c(Cl)c2c(c(OC)c1OC)-c1c(c(Cl)c(OC)c(OC)c1OC(=O)c1ccc([N+](=O)[O-])cc1)CC(C)C(C)C2 (configuration not stated) | 59.4 | – |
| COc1cc2c(c(OC)c1OC)-c1c(c(Cl)c(OC)c(OC)c1OC(=O)c1ccc(C(F)(F)F)cc1)CC(C)C(C)C2 (configuration not stated) | 61.8 | – |
| COc1c(Cl)c2c(c(OC)c1OC)-c1c(c(Cl)c(OC)c(OC)c1OCCCO)CC(C)C(C)C2 (configuration not stated) | 67.1 | – |
| COc1cc2c(c(OC)c1OC)-c1c(O)c(OC)c(OC)c([N+](=O)[O-])c1CC(C)C(C)C2 (configuration not stated) | 70.2 | – |
| COc1cc2c(c(OC)c1OC)-c1c(O)c(OC)c(OC)c(N)c1CC(C)C(C)C2 (configuration not stated) | 97.1 | Activity (L02 [2]): Active; Activity (L02 [3]): Active; Activity (L02 [4]): Non-Toxic; Activity (L02 [5]): Active; Activity (L02 [6]): Active |
| COc1c(O)c2c(c(Cl)c1OC)CC(C)C(C)Cc1c(Cl)c(OC)c(OC)c(OC)c1-2 (configuration not stated) | 67.3 | – |
| COc1cc2c(c(OC)c1OC)-c1c(c(N)c(OC)c(OC)c1OS(=O)(=O)c1ccc(C)cc1)CC(C)C(C)C2 (configuration not stated) | 89 | Activity (L02 [2]): Active; Activity (L02 [3]): Active; Activity (L02 [4]): Non-Toxic; Activity (L02 [5]): Active; Activity (L02 [6]): Active |
| COc1ccc(C(=O)Oc2c(OC)c(OC)c(Cl)c3c2-c2c(cc(OC)c(OC)c2OC)CC(C)C(C)C3)cc1 (configuration not stated) | 70 | – |
| COc1cc2c(c(OC)c1OC)-c1c(c(Cl)c(OC)c(OC)c1OC(=O)CCl)CC(C)C(C)C2 (configuration not stated) | 68.4 | – |
| COc1cc2c(c(OC)c1OC)-c1c(c(Cl)c(OC)c(OC)c1OCCCOC(=O)/C=C/c1ccccc1)CC(C)C(C)C2 (configuration not stated) | 71 | – |

— ChEMBL document CHEMBL5131386, “Synthesis and biological evaluation of novel schisanhenol derivatives as potential hepatoprotective agents” (Eur J Med Chem, 2022)
